Active and inactive are the calls of the source. The calls are words filed in the database; no cut-off is given here.

From ChEMBL document CHEMBL4402589, “Discovery of a Potent and Selective NF-κB-Inducing Kinase (NIK) Inhibitor That Has Anti-inflammatory Effects in Vitro and in Vivo” (J Med Chem, 2020) come the findings set out here.

T1 sequence (Q99558 whole entry): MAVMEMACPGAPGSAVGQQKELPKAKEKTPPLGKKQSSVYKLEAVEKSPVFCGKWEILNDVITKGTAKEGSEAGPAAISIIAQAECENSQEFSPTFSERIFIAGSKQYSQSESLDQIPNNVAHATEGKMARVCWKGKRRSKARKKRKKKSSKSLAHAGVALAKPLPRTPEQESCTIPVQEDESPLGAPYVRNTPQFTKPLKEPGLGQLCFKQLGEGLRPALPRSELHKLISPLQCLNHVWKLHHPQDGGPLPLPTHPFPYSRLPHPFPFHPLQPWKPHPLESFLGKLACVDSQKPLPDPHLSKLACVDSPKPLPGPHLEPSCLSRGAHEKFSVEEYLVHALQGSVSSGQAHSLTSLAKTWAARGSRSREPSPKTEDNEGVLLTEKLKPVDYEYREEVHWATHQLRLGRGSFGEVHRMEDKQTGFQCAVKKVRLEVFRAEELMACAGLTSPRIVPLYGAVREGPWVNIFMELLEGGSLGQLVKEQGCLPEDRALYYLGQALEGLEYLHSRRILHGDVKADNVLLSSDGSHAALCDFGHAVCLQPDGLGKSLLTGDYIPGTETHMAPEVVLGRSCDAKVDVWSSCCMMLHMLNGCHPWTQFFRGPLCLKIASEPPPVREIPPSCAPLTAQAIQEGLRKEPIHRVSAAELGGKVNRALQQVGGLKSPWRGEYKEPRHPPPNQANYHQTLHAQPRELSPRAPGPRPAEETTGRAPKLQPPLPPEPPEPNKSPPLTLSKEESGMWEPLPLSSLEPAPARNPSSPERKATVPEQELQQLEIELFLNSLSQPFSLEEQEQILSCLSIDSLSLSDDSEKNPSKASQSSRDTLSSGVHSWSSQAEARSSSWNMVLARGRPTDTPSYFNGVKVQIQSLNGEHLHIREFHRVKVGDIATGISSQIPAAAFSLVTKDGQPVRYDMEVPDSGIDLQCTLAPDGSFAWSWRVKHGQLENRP

One data set has as its target T1, Mitogen-activated protein kinase kinase kinase 14 (Homo sapiens, UniProt Q99558). The data set can be described thus: Inhibition of human NIK using ATP as substrate by kinase-glo assay.
Conditions: not given
As to `C[C@@](O)(C#Cc1ccc2c(c1)N(c1nc(N)ncc1Cl)CC2)c1nccs1`, half-maximal inhibition (IC50) was put at 0.0042 µM.

Tested on in another data set: not listed separately
The data set can be described thus: Stability of the compound in pH 1 aqueous solution. It counts as physicochemical. Particulars: buffer.
For the compound `CC(O)(C#Cc1cc(-n2ccc3cnc(N)nc32)ccn1)c1nccs1` (centres undefined), the Stability entry is recorded as “Unstable”.

Consider `CN1CCC(O)(C#Cc2ccc(F)c(-c3c[nH]c4cnc(N)nc34)c2)C1=O` (centres undefined), for which the Stability entry is listed as “Stable”.

Turning to `CC(O)(C#Cc1ccc(F)c(-c2c[nH]c3cnc(N)nc23)c1)c1nccs1` (centres undefined), the Stability result is “Stable”.

The target in a further data set is T1, Mitogen-activated protein kinase kinase kinase 14. The data set can be described thus: Inhibition of recombinant human N-terminal GST-tagged NIK (318 to 947 residues) expressed in baculovirus infected Sf9 cells using ultrapure ATP as substrate measured after 1 hr by ADP-glo assay.
Conditions: not given
With `Nc1ncc2ccn(-c3ccnc(C#CC4(O)CCCCC4)c3)c2n1`, the IC50 turned out to be 1.57 µM.

In the case of `COc1cccc(C(C)(O)C#Cc2cccc(-c3c[nH]c4cnc(N)nc34)c2)n1` (centres undefined), the IC50 is > 10 µM.

Turning to `COc1ccc(C#CC(C)(O)c2nccs2)cc1-c1c[nH]c2cnc(N)nc12` (centres undefined), the IC50 worked out at 0.12 µM.

Turning to `COCCOc1ccc(-n2ccc3cnc(N)nc32)cc1C#CC(C)(O)c1nccs1` (centres undefined), the IC50 stood at 25.8 µM.

Regarding `CN1CCCC(O)(C#Cc2cc(-n3ccc4cnc(N)nc43)ccn2)C1=O` (centres undefined), the IC50 was found to be 0.0257 µM.

Consider `CC(O)(C#Cc1cc(-n2ccc3cnc(N)nc32)c(F)cc1F)c1nccs1` (centres undefined), for which the IC50 came out at 0.641 µM.

Consider `CC(O)(C#Cc1cc(F)cc(-c2c[nH]c3cnc(N)nc23)c1)c1nccs1` (centres undefined), for which the IC50 amounted to 0.319 µM.

As to `CCc1nc(N)nc2c1ccn2-c1ccnc(C#CC2(O)CCN(C)C2=O)c1` (centres undefined), the IC50 amounted to 0.19 µM.

Take `CC(C)(O)C#Cc1cccc(-c2c[nH]c3cnc(N)nc23)c1`: the IC50 came out at 0.72 µM.

Take `Nc1ncc2[nH]cc(-c3cccc(C#CC(O)c4nccs4)c3)c2n1` (centres undefined): the IC50 worked out at 6.38 µM.

For `Cc1cc(C(C)(O)C#Cc2cccc(-c3c[nH]c4cnc(N)nc34)c2)no1` (centres undefined), the IC50 was determined as 0.29 µM.

Regarding `CC(O)(C#Cc1cc(-n2ccc3cnc(N)nc32)ccn1)c1nccs1` (centres undefined), the IC50 was determined as 0.0224 µM.

On to `CN1CCC(O)(C#Cc2cccc(-c3c[nH]c4cnc(N)nc34)c2)C1=O` (centres undefined), for which the IC50 is 0.41 µM.

With `COc1ccc(-n2ccc3cnc(N)nc32)cc1C#CC(C)(O)c1nccs1` (centres undefined), the IC50 stood at 1.75 µM.

As to `CC(O)(C#Cc1ccc(-n2ccc3cnc(N)nc32)cc1)c1nccs1` (centres undefined), the IC50 was 3.84 µM.

On to `CN(C)C(=O)C(C)(O)C#Cc1cccc(-c2c[nH]c3cnc(N)nc23)c1` (centres undefined), for which the IC50 is > 10 µM.

Turning to `CC(O)(C#Cc1cccc(-c2c[nH]c3cnc(N)nc23)c1F)c1nccs1` (centres undefined), the IC50 was determined as 10.9 µM.

Take `Cc1ccc(-n2ccc3cnc(N)nc32)cc1C#CC(C)(O)c1nccs1` (centres undefined): the IC50 was 11.7 µM.

As to `Cc1ccc(C#CC(C)(O)c2nccs2)cc1-n1ccc2cnc(N)nc21` (centres undefined), the half-maximal inhibitory concentration (IC50) came out at 0.335 µM.

With `Nc1ncc2ccn(-c3ccnc(C#CC4(O)CCNCC4)c3)c2n1`, the IC50 is > 10 µM.

Take `CC(O)(C#Cc1cc(C#N)cc(-n2ccc3cnc(N)nc32)c1)c1nccs1` (centres undefined): the IC50 worked out at 2.06 µM.

Consider `CC(O)(C#Cc1ccc(F)c(-n2ccc3cnc(N)nc32)c1)c1nccs1` (centres undefined), for which the concentration for half-maximal inhibition (IC50) stood at 0.215 µM.

Consider `CC(O)(C#Cc1cccc(-c2c[nH]c3cnc(N)nc23)c1)C1CCCCC1` (centres undefined), for which the IC50 turned out to be 2.03 µM.

`COc1ccc(C#CC(C)(O)c2nccs2)cc1-n1ccc2cnc(N)nc21` (centres undefined): the IC50 stood at 0.216 µM.

Take `CC(O)(C#Cc1cc(-n2ccc3cnc(N)nc32)ccn1)c1cnccn1` (centres undefined): the IC50 amounted to 1.64 µM.

In the case of `Cc1cc(C(C)(O)C#Cc2cc(-n3ccc4cnc(N)nc43)ccn2)no1` (centres undefined), the IC50 was 0.12 µM.

As for `CN(C)CCOc1ccc(-n2ccc3cnc(N)nc32)cc1C#CC(C)(O)c1nccs1` (centres undefined), the IC50 was > 10 µM.

Take `CN1CCC(O)(C#Cc2cc(-n3ccc4ccc(N)nc43)ccn2)C1=O` (centres undefined): the IC50 amounted to 2.48 µM.

As for `CN1CCC(O)(C#Cc2ccc(F)c(-c3c[nH]c4cnc(N)nc34)c2)C1=O` (centres undefined), the IC50 is 0.0059 µM.

With `C[C@](O)(C#Cc1ccc(F)c(-c2c[nH]c3cnc(N)nc23)c1)c1nccs1`, the IC50 is 2.23 µM.

As for `Nc1ncc2[nH]cc(-c3cccc(C#CC4(O)CCCC4)c3)c2n1`, the IC50 amounted to 0.475 µM.

With `CC(O)(C#Cc1cncc(-n2ccc3cnc(N)nc32)c1)c1nccs1` (centres undefined), the IC50 was 1.86 µM.

On to `Nc1ncc2ccn(-c3ccnc(C#CC4(O)CCCCCC4)c3)c2n1`, for which the IC50 was determined as 0.748 µM.

Turning to `CC(O)(C#Cc1cccc(-c2c[nH]c3cnc(N)nc23)c1)c1nccs1` (centres undefined), the IC50 worked out at 0.218 µM.

As for `CC(O)(C#Cc1cc(-n2ccc3cnc(N)nc32)ccn1)C(=O)N1CCCC1` (centres undefined), the IC50 was 6.16 µM.

As for `Cc1nc(N)nc2c1ccn2-c1ccnc(C#CC2(O)CCN(C)C2=O)c1` (centres undefined), the IC50 was 0.0852 µM.

For the compound `CCC(O)(C#Cc1cc(-n2ccc3cnc(N)nc32)ccn1)c1nccs1` (centres undefined), the IC50 is 2.29 µM.

With `CC(O)(C#Cc1cccc(-n2ccc3cnc(N)nc32)c1)c1nccs1` (centres undefined), the IC50 worked out at 0.303 µM.

Regarding `COc1cc(C#CC(C)(O)c2nccs2)cc(-c2c[nH]c3cnc(N)nc23)c1` (centres undefined), the IC50 was found to be 0.29 µM.

In the case of `COc1nc(N)nc2c1ccn2-c1cccc(C#CC(C)(O)c2nccs2)c1` (centres undefined), the IC50 amounted to 2.48 µM.

`CC(O)(C#Cc1cc(Cl)cc(-c2c[nH]c3cnc(N)nc23)c1)c1nccs1` (centres undefined): the IC50 is > 10 µM.

For `Cc1[nH]c2cnc(N)nc2c1-c1cccc(C#CC(C)(O)c2nccs2)c1` (centres undefined), the IC50 worked out at 2.2 µM.

As for `CC(O)(C#Cc1cc(-n2ccc3cnc(N)nc32)ccc1F)c1nccs1` (centres undefined), the IC50 came out at 0.204 µM.

Turning to `CC(O)(C#Cc1ccc(F)c(-c2c[nH]c3cnc(N)nc23)c1)c1nccs1` (centres undefined), the IC50 was 0.0855 µM.

For `CC(O)(C#Cc1cc(-n2ccc3cnc(N)nc32)c(F)cn1)c1nccs1` (centres undefined), the IC50 was found to be 0.0873 µM.

For `CN1CCC(O)(C#Cc2cc(-n3ccc4cnc(N)nc43)ccn2)C1=O` (centres undefined), the half-maximal inhibitory concentration (IC50) stood at 0.0261 µM.

On to `CC(O)(C#Cc1cccc(-n2cc(Cl)c3cnc(N)nc32)c1)c1nccs1` (centres undefined), for which the IC50 was 2.06 µM.

Regarding `CNc1ccc(-n2ccc3cnc(N)nc32)cc1C#CC(C)(O)c1nccs1` (centres undefined), the IC50 is > 10 µM.

As for `Nc1ncc2ccn(-c3ccnc(C#CC4(O)CCC4)c3)c2n1`, the IC50 turned out to be 0.388 µM.

With `CC(O)(C#Cc1cccc(-c2c[nH]c3cnc(N)nc23)c1)c1cnccn1` (centres undefined), the IC50 worked out at 0.468 µM.

Turning to `CC(O)(C#Cc1cccc(-c2c[nH]c3cnc(N)nc23)c1)C(=O)N1CCCC1` (centres undefined), the IC50 was > 10 µM.

On to `C[C@@](O)(C#Cc1ccc2c(c1)N(c1nc(N)ncc1Cl)CC2)c1nccs1`, for which the 50% inhibitory concentration (IC50) stood at 0.0151 µM.

On to `CC(O)(C#Cc1cc(-n2ccc3cnc(N)nc32)ccc1C#N)c1nccs1` (centres undefined), for which the IC50 amounted to 0.219 µM.

For the compound `Nc1ncc2ccn(-c3ccnc(C#CC4(O)CCCC4)c3)c2n1`, the IC50 is 0.234 µM.

As to `CN(C)C(=O)c1ccc(-n2ccc3cnc(N)nc32)cc1C#CC(C)(O)c1nccs1` (centres undefined), the IC50 was > 10 µM.

The target in another data set is Mitogen-activated protein kinase kinase kinase 14 (Mus musculus) (UniProt Q9WUL6). The data set can be described thus: Inhibition of NIK in NIK/p100 adenoviruses infected C57BL/6 mouse primary hepatocytes assessed as suppression of NIK-mediated proteolysis of p100 to p52 by measuring reduction in p52 level at 5 uM measured after 16 hrs by Western blot analysis.
Sequence of Mitogen-activated protein kinase kinase kinase 14 (Mus musculus) (Q9WUL6 whole entry): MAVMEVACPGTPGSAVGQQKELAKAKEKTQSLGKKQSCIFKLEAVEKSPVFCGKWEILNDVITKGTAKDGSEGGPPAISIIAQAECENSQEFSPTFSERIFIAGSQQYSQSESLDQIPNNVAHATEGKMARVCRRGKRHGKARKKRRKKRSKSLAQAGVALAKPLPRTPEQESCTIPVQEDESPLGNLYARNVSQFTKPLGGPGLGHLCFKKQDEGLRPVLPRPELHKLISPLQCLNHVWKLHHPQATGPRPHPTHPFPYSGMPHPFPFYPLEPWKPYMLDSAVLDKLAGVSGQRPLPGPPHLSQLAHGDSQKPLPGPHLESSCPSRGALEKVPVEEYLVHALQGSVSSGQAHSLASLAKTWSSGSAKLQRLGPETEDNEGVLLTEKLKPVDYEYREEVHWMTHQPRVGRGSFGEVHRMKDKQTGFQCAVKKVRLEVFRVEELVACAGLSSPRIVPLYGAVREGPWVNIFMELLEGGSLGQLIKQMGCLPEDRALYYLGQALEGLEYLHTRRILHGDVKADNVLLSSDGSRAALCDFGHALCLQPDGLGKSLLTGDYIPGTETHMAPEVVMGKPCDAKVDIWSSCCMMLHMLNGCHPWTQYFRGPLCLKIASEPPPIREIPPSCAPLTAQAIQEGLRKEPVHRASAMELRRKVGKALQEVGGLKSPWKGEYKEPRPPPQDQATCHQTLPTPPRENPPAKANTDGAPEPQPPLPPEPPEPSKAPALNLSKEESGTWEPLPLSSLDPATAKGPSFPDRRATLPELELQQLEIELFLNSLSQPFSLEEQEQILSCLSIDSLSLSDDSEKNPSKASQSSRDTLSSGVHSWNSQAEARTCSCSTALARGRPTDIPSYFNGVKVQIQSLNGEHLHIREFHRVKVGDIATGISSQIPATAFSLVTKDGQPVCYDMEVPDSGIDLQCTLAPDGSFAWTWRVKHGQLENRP
Conditions: not given
As to `C[C@@](O)(C#Cc1ccc2c(c1)N(c1nc(N)ncc1Cl)CC2)c1nccs1`, the inhibition result was “Active”.

Tested on in a further data set: not listed separately
The data set can be described thus: Oral bioavailability in ICR mouse. It counts as ADME, organism-based. Conditions: in vivo.
On to `CN1CCC(O)(C#Cc2ccc(F)c(-c3c[nH]c4cnc(N)nc34)c2)C1=O` (centres undefined), for which the bioavailability came to 7%.

For `CN1CCC(O)(C#Cc2cc(-n3ccc4cnc(N)nc43)ccn2)C1=O` (centres undefined), the bioavailability is < 1%.

In a further data set the test system is Hepatocyte. The data set can be described thus: Down regulation of NIK expression in NIK/p100 adenoviruses infected C57BL/6 mouse primary hepatocytes at 5 uM measured after 16 hrs by Western blot analysis. It is filed as functional, cell-based.
Conditions: not given
As to `C[C@@](O)(C#Cc1ccc2c(c1)N(c1nc(N)ncc1Cl)CC2)c1nccs1`, the outcome was inactive.

In the next data set the test system is Mus musculus. Kind of data set: Antiinflammatory activity in CCl4-induced C57BL/6 mouse model of liver injury assessed as reduction in immune cell infiltration in liver at 25 mg/kg, po administered 30 mins prior to CCl4 addition followed by compound redosing at 3 hrs interval for 9 hrs and measured 12 hrs […] by F4/80/DAPI staining based immunofluorescence assay. It counts as functional, organism-based.
Conditions: not given
In the case of `C[C@@](O)(C#Cc1ccc2c(c1)N(c1nc(N)ncc1Cl)CC2)c1nccs1`, the outcome was Active.
